Test results reported in US11913018B2, “In vitro production of expanded potential stem cells” (GENOME RESEARCH LIMITED, priority 2014, dated 2024).

Assays:
AB2.2 mouse ESCs = assay: TE contribution of mouse ESCs cultured in inhibitor combinations, injected to 8-cell host embryos; type: cell-based; conditions: AB2.2 mouse ESCs cultured at least 5 passages, chimera blastocysts co-stained for mCherry and Cdx2
Description: Mouse EPSCs were initially derived and maintained in the standard EPSCM that contains six inhibitors (see materials and methods). To determine the effects of individual inhibitors in EPSCM and to explore the possibility that fewer inhibitors might be sufficient for the expanded potential in mouse stem cells, we cultured AB2.2 mouse ESCs in various combinations of inhibitors, initially based on the 2i/LIF medium, for at least 5 passages before injected to 8-cell host embryos. The chimera blastocysts were co-stained for mCherry and Cdx2 for TE contribution.
Injections were carried out with a Nikon Eclipse TE2000-U inverted microscope unit. ESC/EPSC microinjection was performed at room temperature on the inverted lid of a 100-mm falcon culture dish in an injection drop of 1.0 ml M2 medium (Sigma) The embryo was injected with 6-8 cells per 8-cell stage embryo for bulk injection or 1 cell per embryo for single cell injection. After 45-50 embryos have been injected, the injected embryos were washed three times in KSOM (Millipore) containing 3.0 mg/ml BSA, Embryos were then transferred into a well of four-well plate containing 1.0 ml KSOM. After overnight culture, 20-25 injected embryos were transferred into both uterus of a foster recipient.

EPSCs = assay: EPSCM with other wnt inhibitor in place of XAV939; type: cell-based
human EPSCs = assay: Culture and maintenance of human EPSCs; type: cell-based
Description: We also investigated whether human ESCs could survive and proliferate in EPSCM. H1 hESCs were maintained in standard FGF2 containing media on feeders. H1 cells survived culture in EPSCM and morphologically distinct 3-dimensional colonies emerged within one passage. Continued culture allowed establishment of a stable line which we called H1-EPSCs.
Human iPSC lines were also produced from human neural stem cells, and from human fetal or adult skin fibroblast cells using the six-factor reprogramming technology described in Wang et al (2011) and cultured for 2-3 weeks on feeders. The resulting iPSCs were switched to EPSCM and transgene free stable lines were established (EPSC-iPSCs). (FIG. 6). Stable human EPSC-iPSC lines have been passaged for over 30 passages in EPSCM.
We made several reporter EPSC lines that have a GFP or mCherry expression cassette at loci including Oct4, Sox2 and ROSA26. […] Importantly, these reporter cells provide a convenient way to assess the culture condition. […] However, we have also observed cases where EPSCM supplemented with fewer than six inhibitors has been able to obtain EPSCs. For example, where the EPSCM is supplemented with a chemically defined basal medium, such as Albumax II, it has been observed that fewer than six inhibitors are required obtain EPSCs. […]

Jak/Stat pathway = assay: LIF response in ESCs and EPSCs; type: cell-based, mouse; conditions: adding LIF to EPSCs
Method: For LIF stimulation, 1.0×10^6 cells were seeded in […] for 24 hours. Cells were washed with PBS and cultured in DMEM/F12/KSR for 4 hours, then LIF was supplemented at concentration of 0.0, 0.5, 1.0, 5.0 and 10.0 ng/ml for 30 minutes. Whole cell protein was extracted for Western blot using pSTAT3 (Cell signalling) and STAT3 (BD Biosciences) antibodies. α-Tubulin (Abcam) was used as loading control.
To analyse the expression of down-stream target genes of Jak-Stat3 and MAPK signalling at transcription level after LIF stimulation, both E14Tg2a ESCs and EPSCs were deprived of LIF for 4 hours as above, LIF 1.0 ng/ml was supplemented for 1 hour, total RNA was extracted and reverse transcribed to make cDNA. qPCR was performed using Taqman Gene Expression Assays (ABI)

Q: How did the “TE contribution on adding inhibitor to the 2i/LIF (2i) medium” value (AB2.2 mouse ESCs) turn out when Oc1nc(-c2ccc(C(F)(F)F)cc2)nc2c1CSCC2 [XAV939] was run?
A: substantially increased TE contribution

Q: Cc1ccc2nc(NC(=O)CSc3nc4c(c(=O)n3-c3ccccc3)SCC4)sc2c1 [IWP-2] was tested. Which “use as the wnt inhibitor in EPSCM in place of XAV939” value (EPSCs) did it give?
A: successfully used

Q: Which “TE contribution on adding inhibitor to the 2i/LIF (2i) medium” value (AB2.2 mouse ESCs) does the source give for CN1CCN(C2CCC(n3cc(-c4ccc(Oc5ccccc5)cc4)c4c(N)ncnc43)CC2)CC1 (centres unmarked) [A419259] here?
A: substantially increased TE contribution

Q: How did the “effect of inhibitor absence on human EPSC culture” value (human EPSCs) turn out when C[S+]([O-])c1ccc(-c2nc(-c3ccncc3)c(-c3ccc(F)cc3)[nH]2)cc1 (centres unmarked) [p38i] was run?
A: absence caused gradual deterioration

Q: Which “expression of Jak/Stat downstream genes” value (Jak/Stat pathway) does the source give for “LIF: leukemia inhibitory factor, a cytokine” here?
A: upregulated expression of Jak/Stat downstream genes

Q: And the “phosphorylation of Stat3” value (Jak/Stat pathway)?
A: increased phosphorylation of Stat3

Q: How did the “use as the wnt inhibitor in EPSCM in place of XAV939” value (EPSCs) turn out when Cc1cc(/C=C2\SC(=O)N(c3ccccc3)C2=O)c(C)n1-c1cccnc1 [iCRT 14] was run?
A: successfully used

Q: How did the “effect of inhibitor absence on human EPSC culture” value (human EPSCs) turn out when CCOc1nc(NC(=O)Cc2cc(OC)ccc2OC)cc(N)c1C#N [JNKi] was run?
A: absence caused gradual deterioration
